From ChEMBL document CHEMBL1145652, “Plant anticancer agents. XXVI. Constituents of Peddiea fischeri” (1983) come the findings set out here.

Values after ≈ are worked out from the molar mass of the structure shown. Active and inactive are the calls of the source. The rule behind the calls is not given here.

The subject of experiment [1] is P388. In words: Cytotoxicity against mouse P388 cells. It counts as functional. The conditions noted are these: read-out: ED50 (the source's name).
Experiment [2] concerns P388. In words: In vivo antitumor activity against mouse P388 cells at 2.2 to 17.5 mg/kg. It is filed as functional, organism-based.
Experiment [3] has as its system P388. In words: In vivo antitumor activity against mouse P388 cells at 1.4 to 11.4 mg/kg. It is filed as functional, organism-based.

Take `COC1=CC(=O)C=C(OC)C1=O` [2,6-DIMETHOXYQUINONE]: in the experiment with P388 [1], the EC50 came out at 0.0015 µg/mL (≈ 0.00892 µM).
With `COc1cc2cc(Oc3ccc4ccc(=O)oc4c3)c(=O)oc2cc1O` [DAPHNORETIN], the EC50 with P388 [1] turned out to be 2.2 µg/mL (≈ 6.24 µM). Besides, the outcome in the experiment on P388 [2] and in the experiment with P388 [3] was inactive.
In the case of `O=c1ccc2ccc(O)cc2o1` [UMBELLIFERONE], in the experiment on P388 [1], the EC50 came to 0.4 µg/mL (≈ 2.47 µM). Also, the result in the experiment with P388 [2] and in the experiment with P388 [3] was inactive.
